Assay results published in the supplement of paper PMC5908809.

What was measured:
[1] = system: normal NK cells expanded with K562-aAPC; assay: percent inhibition of viability; higher = more inhibition; details: 72 h, IL-2 2.5 ng/mL
Method: (§1)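 Drug sensitivity and resistance testing on K562-aAPC-expanded normal NK cells: 5 concentrations (10-fold steps over a 10,000-fold range), 72 h at 37 °C, viability by CellTiter-Glo normalised to DMSO and benzethonium chloride controls; DSS from the fitted curve.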

[2] = system: DERL-7 (IL-2 2.5 ng/mL); assay: as above; details: 72 h
[3] = system: IMC-1 (IL-2 20 ng/mL); assay: as above; details: 72 h
[4] = system: KAI3 (IL-2 2.5 ng/mL); assay: as above; details: 72 h
[5] = system: KHYG-1 (IL-2 2.5 ng/mL); assay: as above; details: 72 h
[6] = system: NK-92 (IL-2 2.5 ng/mL); assay: as above; details: 72 h
[7] = system: NK-YS (IL-2 2.5 ng/mL); assay: as above; details: 72 h
[8] = system: NKL (IL-2 2.5 ng/mL); assay: as above; details: 72 h
[9] = system: SNK-6 (IL-2 2.5 ng/mL); assay: as above; details: 72 h
[10] = system: YT (IL-2 2.5 ng/mL); assay: as above; details: 72 h
[11] = system: normal primary NK cells, pool 1 (3 donors) (IL-2 2.5 ng/mL); assay: as above; details: 72 h
[12] = system: normal primary NK cells, pool 1 (3 donors), resting (IL-2 0 ng/mL); assay: as above; details: 72 h
[13] = system: normal primary NK cells, pool 2 (3 donors) (IL-2 2.5 ng/mL); assay: as above; details: 72 h
[14] = system: normal primary NK cells, pool 3 (3 donors) (IL-2 2.5 ng/mL); assay: as above; details: 72 h
[15] = system: normal NK cells expanded with K562-aAPC; assay: drug sensitivity score (DSS) (DSS units); higher = more sensitive; extreme values may be limits of the assay; details: 72 h; IL-2 2.5 ng/mL
Method: as §1

[16] = system: DERL-7 (IL-2 2.5 ng/mL); assay: as above; details: 72 h
[17] = system: IMC-1 (IL-2 20 ng/mL); assay: as above; details: 72 h
[18] = system: KAI3 (IL-2 2.5 ng/mL); assay: as above; details: 72 h
[19] = system: KHYG-1 (IL-2 2.5 ng/mL); assay: as above; details: 72 h
[20] = system: NK-92 (IL-2 2.5 ng/mL); assay: as above; details: 72 h
[21] = system: NK-YS (IL-2 2.5 ng/mL); assay: as above; details: 72 h
[22] = system: NKL (IL-2 2.5 ng/mL); assay: as above; details: 72 h
[23] = system: SNK-6 (IL-2 2.5 ng/mL); assay: as above; details: 72 h
[24] = system: YT (IL-2 2.5 ng/mL); assay: as above; details: 72 h
[25] = system: normal primary NK cells, pool 1 (3 donors) (IL-2 2.5 ng/mL); assay: as above; details: 72 h
[26] = system: normal primary NK cells, pool 1 (3 donors), resting (IL-2 0 ng/mL); assay: as above; details: 72 h
[27] = system: normal primary NK cells, pool 2 (3 donors) (IL-2 2.5 ng/mL); assay: as above; details: 72 h
[28] = system: normal primary NK cells, pool 3 (3 donors) (IL-2 2.5 ng/mL); assay: as above; details: 72 h

C[C@]1(c2nc3c(C(N)=O)cccc3[nH]2)CCCN1 [Veliparib] (max concentration tested 10000 nM)
percent inhibition of viability [%]
Details | 1 nM | 10 nM | 100 nM | 1000 nM | 10000 nM
[1] | 3.32 | 0.6 | 3.03 | 3.27 | 19.4
[2] | 1.66 | 5.22 | 0.09 | -2.95 | 25.1
[3] | 1 | 0.9 | 0.37 | 0.91 | 1.79
[4] | 1.98 | -0.92 | -2.55 | 12.1 | 34.3
[5] | -11.7 | -8.12 | -8.94 | -3.41 | 12
[6] | 7.45 | 4.92 | 2.84 | -4.04 | 22.9
[7] | -6.78 | -8.37 | -8.01 | -6.17 | 14.8
[8] | -2.87 | -3.94 | -5.59 | 4.18 | 38.6
[9] | 3.66 | 1.93 | -13.1 | -1.7 | 13.8
[10] | 1.3 | -1.34 | 0.84 | -0.22 | 3.43
[11] | -7.43 | 1.5 | 2.84 | 7.25 | 50.4
[12] | -8.38 | -4.44 | 2.95 | -4.91 | 56.4
[13] | -7.51 | -2.4 | -4.92 | -8.11 | 16.4
[14] | -3.03 | -1.96 | -0.62 | -3.1 | 15.2

Details | drug sensitivity score
[15] | 0.98
[16] | 0.78
[17] | 0
[18] | 3.29
[19] | 0.01
[20] | 0.6
[21] | 0.1
[22] | 2.57
[23] | 0.1
[24] | 0
[25] | 3.89
[26] | 2.67
[27] | 0.16
[28] | 0.16

CNC(=O)c1ccc(N2C(=S)N(c3cnc(C#N)c(C(F)(F)F)c3)C(=O)C23CCC3)cc1F [ARN 509] (max concentration tested 10000 nM)
percent inhibition of viability [%]
Details | 1 nM | 10 nM | 100 nM | 1000 nM | 10000 nM
[1] | 0.72 | 1.64 | 2.47 | 20 | 14.2
[2] | 6.41 | -1.09 | -0.93 | -13.3 | -12.6
[3] | 2.81 | -1.31 | 5.83 | 9.26 | 16.9
[4] | -2.56 | -12.9 | 0.32 | 4.54 | 27.9
[5] | -1.73 | -3.05 | 1.87 | 8.59 | 9.64
[6] | -3.11 | -4.21 | 2.28 | -1.18 | 23
[7] | -3.22 | -1.75 | -0.61 | 1.75 | 15.7
[8] | -5.58 | -11.3 | -0.18 | -5.48 | 3.63
[9] | 16.7 | -1.7 | 14.6 | 33.1 | 24.3
[10] | 2.58 | 2.98 | 4.62 | 0.81 | 10.2
[11] | -11.3 | 4.68 | -6.94 | -10.6 | 10.8
[12] | -0.17 | 11.7 | -4.44 | -10.2 | 15.5
[13] | -8.15 | -8.75 | -5.23 | -6.28 | 8.97
[14] | -7.92 | -6.67 | -6.21 | -10.2 | 3.54

Details | drug sensitivity score
[15] | 3.05
[16] | 0
[17] | 0.78
[18] | 1.88
[19] | 0
[20] | 0.72
[21] | 0.46
[22] | 0
[23] | 7.62
[24] | 0
[25] | 0
[26] | 0.11
[27] | 0
[28] | 0

COCC[n+]1c2c(n(Cc3cnccn3)c1C)C(=O)c1ccccc1C2=O [YM155] (max concentration tested 10000 nM)
percent inhibition of viability [%]
Details | 1 nM | 10 nM | 100 nM | 1000 nM | 10000 nM
[1] | -6.82 | 3.02 | 36.7 | 96.8 | 100
[2] | 7.39 | 49.9 | 100 | 101 | 100
[3] | 65.3 | 99.4 | 100 | 101 | 100
[4] | 8.21 | 49.4 | 93.5 | 106 | 103
[5] | 2.01 | 20.5 | 102 | 106 | 102
[6] | -8.35 | 27.6 | 93.5 | 105 | 102
[7] | 0.18 | 29 | 97.7 | 107 | 103
[8] | 10.2 | 90.5 | 104 | 108 | 102
[9] | 8.28 | 13.1 | 85.6 | 98.6 | 100
[10] | 5.75 | 59.2 | 102 | 106 | 102
[11] | -4.81 | -8.82 | 20.6 | 54.2 | 100
[12] | -2.05 | -12.4 | 35.7 | 79.2 | 98.8
[13] | -1.75 | 4.96 | 15.5 | 50.5 | 97.1
[14] | -2.28 | 1.02 | 6.74 | 31.9 | 86.7

Details | drug sensitivity score
[15] | 22
[16] | 36.2
[17] | 48.1
[18] | 35.8
[19] | 33.8
[20] | 33.2
[21] | 34.2
[22] | 42.9
[23] | 29.9
[24] | 37.6
[25] | 12.9
[26] | 19.1
[27] | 12
[28] | 8.63
